Measurements reported in patent US6261760A, “Regulation of the cell cycle by sterols” (priority 1999, dated 2001).
“Also recorded” adds a separate entry of the source. Like-named read-outs stand apart in the source and are kept apart here.

Key:
fibroblast monolayers [1] = assay: FC efflux from fibroblast monolayers (3H-FC label); format: cell-based, human
Experimental: Fibroblast monolayers were equilibrated with ^3 H-FC-labeled native plasma or with isolated ^3 H-labeled LDL, as specified for each experiment. Following incubation, the dishes were washed with albumin-complete PBS and then (×4) with complete PBS. They were then incubated for 3 min with unlabeled plasma or lipoprotein fractions and the rate of appearance of radioactivity in the medium determined. Samples of medium ([…]) were immediately chilled in ice water and centrifuged (10 min, 2000×g) at 0-2° C. ^3 H-cholesterol radioactivity in the supernatant was either assayed directly, or fractionated by agarose gel electrophoresis. FC efflux was linear as previously reported (Kawano et al., Biochemistry, 32: 5025-5028 (1993)).
For electrophoresis, […] portions of labeled medium were added to strips of 0.75% w/v agarose in 0.025 M barbital buffer (pH 8.6) and separated as previously described (Fielding et al., Biochemistry, 30: 8551-8557 (1991)). 2.5 mm gel fractions were then collected, and radioactivity measured. The location of major lipoprotein classes was determined from strips run simultaneously with whole native plasma equilibrated (60 min, 37° C.) With ^3 HFC.
Rates of FC influx and efflux between medium and fibroblast monolayers preincubated for 24 h with 7-80% native human plasma in DMEM were determined. Cells equilibrated in 80% compared to 7% v/v plasma contained 35-40% more total cholesterol but only 10-15% more FC. In 50% v/v plasma, cholesteryl ester levels were lower than in 80% plasma but FC levels were almost the same. Rates of transfer of FC between the cells and their extracellular medium were determined for each plasma dilution. […] was measured as the rate of transfer of ^3 H-FC radioactivity from labeled native plasma to unlabeled cells. […] was determined as the rate of transfer of radioactivity from uniformly labeled cells to unlabeled native plasma medium.

fibroblast monolayers [2] = assay: Cellular cholesterol mass (FC, EC, total); format: cell-based, human; settings: +NEM 2 mM; increase over 120 min, 37° C.
Experimental: The FC and EC mass of cell monolayers was determined before and after incubation with lipoprotein as described above. Portions of the chloroform phase were analyzed for total and free cholesterol. Except where indicated each data point represents the mean of triplicate dishes. The coefficient of variation was <5% of means in these experiments.
120 min. at 37° C. Initial cell FC was […].

[3] = system: LDL FC uptake by fibroblast monolayers; assay: Transfer of LDL-derived 3H-FC into fibroblast monolayers with metabolic inhibitors (Example 2); format: cell-based, human; settings: brefeldin A, vinblastine, taxol, nocodazole; NEM 2 mM
[4] = system: intracellular FC transport to the cell surface in fibroblast monolayers; assay: Transfer of intracellular 3H-FC to the cell surface (cholesterol oxidase); format: cell-based, human; settings: in words
Experimental: This assay utilized the finding (see Example 1) that only FC in the caveolar fraction of the plasma membrane fraction was modified by cholesterol oxidase in unfixed fibroblast monolayers.
The rate at which intracellular LDL-derived ^3 H-FC became accessible at the cell surface was measured as follows. Cell monolayers were labeled with ^3 H-FC LDL under the conditions shown for each experiment. Unbound and adsorbed LDL were removed as described above. In some experiments metabolic inhibitors of different transport steps were then added for 30 min at 15° C. […] Cholesterol oxidase (Boehringer-Manheim, Indianapolis, Ind., USA) was added in PBS to a final concentration of 1 U ml^-1. Incubation was for 4 h at 0° C. The cells were washed with ice-cold PBS, and extracted with 0.1 N NAOH. Cell total lipid was extracted with chloroform-methanol (1:1 v/v). […] .
Fibroblast monolayers were prelabeled with FC-labeled LDL for 2 min at 31° C. Medium and surface-bound labeled LDL were removed as described above. The cells were incubated with inhibitors of intracellular transport for 30 min at 15° C. Movement of FC label to the cell surface remained negligible (FIG. 11). The cells were brought to 31° C. for 15 min, and then cooled on wet ice. ^3 H-FC transfer to the cell surface (in the presence and absence of inhibitor) was assayed with cholesterol oxidase as described above.

[5] = system: intracellular FC vesicle fractions of fibroblast monolayers; assay: D2O-Ficoll density gradient fractionation of LDL-derived 3H-FC vesicles; format: cell-based, human; settings: NEM 2 mM
Experimental: Early endosomal vesicles were labeled with LDL-derived ^3 H-FC by a modification of procedures described by Woodman & Warren (1991) J. Cell Biol., 112:1133-1141. Fibroblast monolayers in 10 cm dishes were washed in ice-cold PBS. The cells were labeled by incubation (2 h, 4° C.) with ^3 H-FC LDL. The monolayers were washed in PBS and brought to 31° C. for 0-15 min. The cells were then quickly chilled on ice, and cold unlabeled LDL was added (15 min, 4° C.) to displace any remaining surface-bound labeled LDL and all subsequent steps were carried out at 0-4° C.
Cells from three 10 cm dishes were used for each gradient. Monolayers were washed with 140 mM sucrose, 0.5 mM MgCl2, 1 mM EGTA, 20 mM 2-[N-morpholino]ethanesulfonic acid (MES), 70 mM potassium acetate, pH 6.6 (`vesicle buffer`) (Woodman & Warren, supra.). […] Fractions (~0.6 ml) were collected dropwise and the distribution of FC label determined. […] Solution density was determined gravimetrically using […] portions of each fraction. […]
The identity of intracellular transport intermediates and the extent of any cross-contamination between fractions was established using specific antibodies to protein markers, labeled ligands of receptor proteins, and assays of enzyme proteins. […] The distribution of antigen between different gradient fractions was determined with a computerized scanner (ImageQuant, Molecular Devices, Sunnyvale, Calif., USA).

vesicular transport = settings: assays of vesicular transport in vitro; cited from earlier work
[6] = system: LDL FC uptake by fibroblast monolayers; assay: Effects of metabolic inhibitors on uptake of 3H-cholesterol from LDL (Example 1)
caveolin promoter = assay: Luciferase expression driven by caveolin promoter (pGL3); format: cell-based; settings: Homo sapiens, Skin fibroblast, 3 h; 50 μM cholesterol α-epoxide, 80% v/v plasma; read-out: reduction of luciferase expression
Source text: The pGL3 luciferase vector (Promega, Madison, Wis.) was used for cloning purposes. A 705 bp Bgl II restriction fragment corresponding to -781 to -76 bp (relative to the translational start site) was isolated from the 4 kb genomic fragment described above. This was subcloned into the Bgl II site of the vector. The orientation of the insert was identified by restriction mapping and DNA sequencing.
Mutations of sequences within the promoter were created by deletional mutagenesis on single strand DNA, using the Sculptor mutagenesis kit (Amersham). On the basis of the caveolin gene promoter sequence, three oligonucleotides were designed: i) from -664 to -620 with bases -646 to -637 deleted; ii) from -412 to -363 with bases -395 to -386 deleted; and iii) from -302 to -262 with bases -287 to -278 deleted. These were used to generate the promoter mutants designated Δ1, Δ2 and Δ3 respectively.
Normal skin fibroblasts were plated at a density of 5-8×10^5 cells per 6 cm dish. These cells were transfected with 10 μg per dish of the wild type (705 bp) caveolin promoter fragment subcloned in the forward and reverse orientation in the luciferase expression vector pGL3. […] After 10-20 sec, luciferase activity was determined using an analytical luminometer (Monolight 2010, Analytical Luminescence Laboratories, San Diego, Calif.).

caveolin mRNA [7] = assay: Caveolin mRNA levels (Northern blot); settings: 80% v/v plasma + 50 μM cholesterol α-epoxide, 8 h with actinomycin, 37° C.
[8] = system: LDL FC uptake by fibroblast monolayers; settings: in words
caveolin mRNA [9] = settings: literature; cited from earlier work
[10] = system: human hepatoblastoma (HepG2) cells; settings: cited from earlier work
fibroblasts = settings: fibroblast monolayers; cited from earlier work

## CCN1C(=O)C=CC1=O [N-ethylmaleimide]
Fibroblast monolayers [1]; +NEM 2 mM, proportion retained after 80% v/v plasma-PBS, 10 min, 37° C.
  Lipoprotein-resistant label: 0.24 ± 0.03
Fibroblast monolayers [1]; in words, listed as NEM
  initial rate of efflux of FC from prelabeled cells to plasma: increased rate of efflux; also recorded: increased several-fold
Fibroblast monolayers [2]
  D total cholesterol: 0.4 ± 0.2 Fg dish^-1
[3]
  effect on uptake of 3H-FC from LDL: blocks selective uptake of FC from LDL
[4]
  effect on transport of intracellular 3H-FC to the cell surface: inhibited the return of FC to the cell surface, but less effectively than did nocodazole
[5]
  FC label with clathrin at d 1.12 g ml^-1: no peak of FC label was present with clathrin at d 1.12 g ml^-1
Vesicular transport
  concentration for maximal inhibition: 1 mM
[6]; FIG. 8
  inhibition of the uptake of free cholesterol from LDLs: > 80%
[6]; NEM: first 10-15 min, KNO3: 50 mM, data not shown
  time course of inhibition of LDL FC uptake: no effect
[6]; cells prelabeled to equilibrium (24 h) with 3H-FC
  time to complete inhibition: ≤ 30 min
[6]; preincubated 30 min with NEM, incubation beyond 10-15 min, FIG. 8
  inhibition of the uptake of 3H-FC from LDL: > 80%

## CC(C)CCC[C@@H](C)[C@H]1CC[C@H]2[C@@H]3CC4OC45C[C@@H](O)CC[C@]5(C)[C@H]3CC[C@]12C (stereo partly drawn) [cholesterol α-epoxide]
Caveolin promoter
  inhibition at 50 µM: 60%
Caveolin mRNA [7]
  caveolin mRNA level relative to total RNA: 0.47

## CC(=O)[C@H]1CC[C@H]2[C@@H]3CCC4=CC(=O)CC[C@]4(C)[C@H]3CC[C@]12C [Progesterone]
[8]
  effect on LDL FC uptake: no effect
Caveolin mRNA [9]
  effect on caveolin mRNA levels: reduced equilibrium caveolin mRNA levels
[10]
  effect on transfer of FC from plasma membrane to cell interior: promoted the transfer of FC from the plasma membrane to the interior of the cell
fibroblasts
  transport of FC between the TGN and cell surface: inhibited FC transport between the TGN and cell surface
[6]; in words
  effect on LDL FC uptake: without effect
